Experimental findings from ChEMBL document CHEMBL1177693, “Antimalarials from nature” (Bioorg Med Chem, 2009) are described below.

Converted amounts (≈) assume the structure as drawn.

This experiment relates to Plasmodium falciparum. Description: Antimalarial activity against Plasmodium falciparum. In kind it is functional, organism-based. As to conditions: Plasmodium falciparum.
As to `COc1cc2c(=O)c3c(O)c(C/C=C(\C)CCC=C(C)C)c(O)cc3oc2cc1O` [COWAXANTHONE], the IC50 – broadly, the concentration that inhibits the measured activity by half – was 1.5 µg/mL.

`C/C=C(/CO[C@H]1O[C@@H](CO)[C@H](O)[C@@H](O)[C@@H]1O)c1cc2n(c(=O)c1CO)CCc1c-2[nH]c2ccccc12` [NAUCLEOFFICINE A] returned an IC50 of 9.7 µM. Turning to `C=C1C(=O)O[C@@H]2C[C@@H](C)/C=C\C(=O)[C@@](C)(O)[C@H](OC(C)=O)[C@@H](OC(=O)CC(C)C)[C@@H]12` [NEUROLENIN B], the IC50 worked out at 0.62 µM. The same measure, in the same setting: the result for `C=C[C@@]12COC(=O)C(=C)[C@@H]1[C@@H](O)[C@H](C(=C)C(=O)OC)[C@@H](OC(=O)C(=C)CO)C2` [VERNODALOL] reads 4.8 µg/mL; that for `CC1(C)C=Cc2c(ccc(C(=O)/C=C/c3ccc(O)cc3)c2O)O1`, 3.36 µM. Still for that read-out and setting: to `C/C=C(\C)C(=O)O[C@@H]1[C@H]2C(C)=CC(=O)[C@@H](O)[C@]2(C)[C@H]2[C@]3(O)OC[C@@]24[C@@H]1OC(=O)C[C@H]4[C@@H](C)[C@H]3O` belongs 0.061 µg/mL. `O=C1c2ccc(O)cc2O[C@H](c2ccc(O)cc2)[C@H]1[C@@H]1C(=O)c2ccc(O)cc2O[C@H]1c1ccc(O)cc1` returned a 50% inhibitory concentration (IC50) of 6.7 µM.

Regarding `C=C1C([C@@]2(C)C=CC(=O)C(C)(C)[C@@H]2[C@H](O)C(=O)OC)CC[C@@]2(C)[C@H](c3ccoc3)OC(=O)C[C@]12O` (some centres undefined) [DOMESTICULIDE A], the concentration for half-maximal inhibition (IC50) is > 20 µg/mL. As to `C[C@@H]1CC[C@H]2C(C)(C)[C@H](O)CC[C@]2(C)[C@@]12Cc1c(O)cc(C=O)c(C=O)c1O2`, the IC50 worked out at 0.85 µg/mL. The same measure, in the same setting: the result for `COc1c2c(cc(O)c1-c1cc(-c3ccc4c(-c5c(O)cc(O)c6c5C[C@@H](C)N[C@@H]6C)c(C)cc(OC)c4c3O)c(O)c3c(OC)cc(C)cc13)C[C@@H](C)N=C2C` [KORUNDAMINE A] reads 1.1 µg/mL; that for `CC1=CC(=O)[C@@H](O)[C@]2(C)[C@H]3[C@]4(O)OC[C@@]35[C@@H](C[C@@H]12)OC(=O)[C@H](O)[C@@]5(O)[C@H](C)[C@H]4O` [PASAKBUMIN C], 0.0933 µg/mL; that for `C=C1C(=O)[C@@]23CC[C@H]4[C@@]5(C)CCC[C@@]4(OC5=O)[C@@]2(C)CC[C@@H]1C3`, 1.57 µg/mL. In turn, `COc1c(O)cc2oc3cc(O)c(CC=C(C)C)c(O)c3c(=O)c2c1CC=C(C)C` [MANGOSTIN] yielded an IC50 of 17 µM. Same read-out and setting: to `CC1=CC(=O)c2c(O)cccc2C1=O` [PLUMBAGIN] belongs 0.27 µM; to `O[C@H]1[C@H]2c3cc4c(cc3CN3CCC(=C[C@@H]1O)[C@H]23)OCO4` [LYCORINE], 0.62 µg/mL. Turning to `C=C1C(=O)O[C@@H]2C[C@@H](C)[C@@H]3C=CC(=O)[C@@]3(C)[C@@H](O)[C@H]12` [HELENALIN], the half-maximal inhibitory concentration (IC50) was 0.23 µM. `COc1cc(O)c(C(=O)CCc2ccccc2)c(O)c1[C@H]1C=C(C)CC[C@@H]1C(C)C` had an IC50 of 5.64 µM.

`C=CC(C)(C)c1c2c(c(OC)c3ccc(=O)oc13)C=CC(C)(C)O2` [DENTATIN] came in with a concentration for half-maximal inhibition (IC50) of 8.5 µg/mL. Same read-out and setting: the result for `COc1cc2c(cc1OC)[C@H](Cc1ccc(Oc3c(O)c(OC)cc4c3C[C@@H]3c5c(c(O)c(OC)c(OC)c5-4)CCN3C)cc1)N(C)CC2` reads 0.0102 µg/mL.

`C=C1C(=O)[C@@]23CC[C@H]4[C@@]5(C)CCC[C@@]4(OC5=O)[C@@]2(C)CC[C@]1(O)C3` had a concentration for half-maximal inhibition (IC50) of 0.67 µg/mL. Still for that read-out and setting: to `CC[C@H](C)[C@@H]([C@@H](CC(=O)N1CCC[C@H]1[C@H](OC)[C@@H](C)C(=O)N[C@@H](Cc1ccccc1)c1nccs1)OC)N(C)C(=O)[C@@H](NC(=O)[C@H](C(C)C)N(C)C)C(C)C` [DOLASTATIN-10] belongs 0.0001 µM. On to `C=C(C)C(=O)O[C@@H]1C[C@@]2(C)OC(=CC2=O)/C(CO)=C\[C@H]2OC(=O)C(=C)[C@@H]21`, for which the IC50 is 1.2 µg/mL. On the same count and under the same terms, the result for `COC(=O)/C(=C/C[C@H]1[C@@]2(CC[C@H]3C(C)(C)CCC[C@@]31C)CO2)C1CO1` (some centres undefined) reads 4.97 µM. Consider `C[C@H]1[C@H](O)CCC2=CC(=O)[C@@]3([C@@]4(CO)CO4)O[C@@H]3[C@@]21C`, for which it took 0.5 µg/mL (≈ 1.78 µM) to reach a half-maximal effect (EC50).
